# According to patent US20250127784A1, “Treatment of Telangiectasia” (IMPERIAL COLLEGE INNOVATIONS LIMITED, priority 2022, published 2025):
# “Also recorded” adds a separate entry of the source.
# B1: BMP9: bone morphogenetic protein 9 (aka growth and differentiation factor 2, GDF2); causal ligand for HHT, used to treat BOECs for 1 hour (protein, UniProt Q9UK05 320-429, looked up)
# Growth/differentiation factor …: SAGAGSHCQKTSLRVNFEDIGWDSWIIAPKEYEAYECKGGCFFPLADDVTPTKHAIVQTLVHLKFPTKVGKACCVPTKLSPISVLYKDDMGVPTLKYHYEGMSVAECGCR
# How the values were obtained:
# [1] = system: pulmonary arteriovenous malformations (PAVMs) of the HHT patient; assay: Blinded thoracic CT scan comparison of pulmonary AVMs before and after trametinib; assay type: in vivo, human; settings: for effect on pulmonary AVMs (CT scans): 1 month before versus after 10 months of trametinib treatment; for size of venous sac #7: 13 mm at T−2 ys, 15 mm at T−1M
# Method: Thoracic CT scan images taken for clinical purposes were compared before Trametinib (−10 years (T−10 yrs), −2 years (T−2ys), −1 month (T−1M)), and after Trametinib for 4 months (T+4M), 10 months (T+10M) and 18 months (T+18M, data not shown).
# Blinded analysis of the CT scans was conducted by an expert Imperial Thoracic Radiologist to address the question of “whether the PAVMs have stayed the same, got better, or got worse?”
# [2] = dose of 2 mg/day; cited from earlier work
# [3] = system: HHT-associated haemorrhage (nosebleeds) and anaemia in ENG+/− HHT patient; assay: Clinical case: HHT patient treated with trametinib, nosebleeds and transfusion-dependent anaemia; settings: for nosebleed frequency grade/category for HHT patients (Shovlin 2010, N=202): pre: highest category
# [4] = system: MAP3K1 transcripts in BOECs; assay: RNASeq of blood outgrowth endothelial cells (BOECs) treated by BMP9: MAP3K1; assay type: cell-based, human; settings: all BOECs (N=16), treated by BMP9 for 1 hour versus untreated
# Method: FIG. 8: MAP3K1 RNASeq data in HHT and control endothelial cells from 16 cultures of blood outgrowth endothelial cells (BOECs: 4 controls, and 12 from the HHT genotypes ACVRL1^+/−, ENG^+/− and SMAD4^+/−). Data were RBM45-normalised. A Untreated BOECs (N=8). B All BOECs (N=16), untreated (unRx), and treated (Rx) by BMP9 for 1 hour. Bars: mean and standard deviation; circles: individual cultures.
# To test this hypothesis, further RNASeq analysis of blood outgrowth endothelial cells (BOECs) from HHT patients was carried out. It has previously been shown that the Shovlin group established BOECs from controls and patients of all 3 HHT genotypes (ENG^+/−, ACVRL1^+/− and SMAD4^+/−); extracted RNA from replicate cultures; and developed novel methodologies to interpret primary alignment data generated by sequencing alignments to Homo sapiens human genome build 38 (GRCh38). […]
# To test this hypothesis, further RNAseq analysis of blood outgrowth endothelial cells (BOECs) from HHT patients was carried out, and the relative expression levels of TGFβ/BMP9 signalling inhibitors was investigated. […] RNA had been extracted from replicate cultures; sequenced and aligned to Homo sapiens human genome build 38 (GRCh38), and unique gene reads normalised to total alignment counts per library initially further normalised using the Shovlin-group validated, lowest Gini Coefficient (GC) housekeeper gene RBM45 […]
# [5] = system: MEK1/2 transcript levels in control and ENG+/− BOECs; assay: RNASeq of blood outgrowth endothelial cells (BOECs) treated by BMP9: MEK1/2; assay type: cell-based, human; settings: treated by BMP9 for 1 hour versus untreated, RBM45-normalised
# Method: (§1) FIG. 9: RNASeq data in HHT and control endothelial cells for MAP2K1 encoding MEK1 from 16 cultures of blood outgrowth endothelial cells (BOECs: 4 controls, and 12 from the HHT genotypes ACVRL1^+/−, ENG^+/− and SMAD4^+/−). Data were RBM45-normalised which normalises for PTC-induced stress. A All BOECs, B Control and ENG BOECs; C Control and ENG BOECs untreated (unRx) and treated (Rx) by BMP9 for 1 hour. Bars: mean and standard deviation; circles: individual cultures.
# as §1, with “10:” for “9:”, “MAP2K2” for “MAP2K1”, “MEK2” for “MEK1”
# RNAseq was carried out on BOECs from HHT patients and healthy controls to investigate MEK1/MEK2 transcription levels, using RBM45 normalisation to normalise for PTC-related stress.
molecule,measurement,setting,value
"CC(=O)Nc1cccc(-n2c(=O)n(C3CC3)c(=O)c3c(Nc4ccc(I)cc4F)n(C)c(=O)c(C)c32)c1 [trametinib, N-(3-{3-Cyclopropyl-5-[(2-fluoro-4-iodophenyl)amino]-6,8-dimethyl-2,4,7-trioxo-3,4,6,7-tetrahydropyrido[4,3-d]pyrimidin-1(2H)-yl}phenyl)acetamide]",effect on pulmonary AVMs (CT scans),[1],has no effect on the patient's AVMs; also recorded: pulmonary AVMs did not improve
same,effect on pulmonary AVMs (CT scans),[1]; listed as Trametinib,"No pulmonary AVMs improved; also recorded: had no effect on the PAVMs; also recorded: within the error of CT, but with a probable slight increase in size"
same,size of venous sac #7,[1]; T+4M (trametinib for 4 months),16 mm
same,size of venous sac #7,[1]; T+10M (trametinib for 10 months),16.6 mm
same,number of the 11 main pulmonary AVMs possibly slightly larger,"[1]; scans 1 month before trametinib and 11 months later, after 10 months of treatment",4
same,elimination half-life,[2],93.6 to 115 h
same,"overall effect on HHT telangiectasia, nosebleeds (haemorrhage) and anaemia","[3]; ENG+/− HHT patient, trametinib treatment","treats telangiectasia, and particularly anaemia and haemorrhage associated with telangiectasia in HHT; also recorded: clinically important improvement in nosebleeds and anaemia; also recorded: elicited an improvement in HHT-associated haemorrhage (nosebleeds) and anaemia"
same,"maximum nose bleed frequency, two most severe categories (daily or weekly)",[3]; after 10 months of trametinib treatment,no longer fitted into either of these categories
same,"haemorrhage adjusted iron requirement (HAIR) grouping (Finnamore 2013, N=50)","[3]; after 10 months of trametinib, pre: 4th highest grouping",lowest grouping
same,"nosebleed frequency grade/category for HHT patients (Shovlin 2010, N=202)",[3]; after 10 months of trametinib,3rd lowest frequency grade
same,"nosebleed frequency grade/category for HHT patients (Shovlin 2010, N=202)","[3]; after 10 months of trametinib, listed as Trametinib",third lowest category
same,"haemorrhage adjusted iron requirement (HAIR) quintile (Finnamore 2013, N=50)","[3]; after 10 months of trametinib, pre: highest quintile",lowest quintile
same,intensity of nosebleeds,[3]; after 10 months trametinib treatment,brief trickles
same,nosebleed frequency,"[3]; after 10 months trametinib treatment, before: several times per week to multiple times per day",no more than once per month
same,blood (red cell) transfusion requirement for anaemia,"[3]; after 10 months trametinib treatment, previously every 3 weeks",transfusions were not required even at extended assessment times
same,transfusion assessment interval,"[3]; after 10 months trametinib treatment, previously transfusions every 3 weeks",8 weekly
same,"nosebleeds (frequency and intensity), maintained frequency",[3]; at 18 and 24 months of trametinib treatment,approximately one a year
same,haemorrhage adjusted iron requirement (HAIR),[3]; at 18 and 24 months of trametinib treatment (not shown),reduced
same,"side effects, adverse event grade (CTCAE version 5.0)","[3]; standard chemotherapeutic regimen, HHT patient with cancer",Grade 1
B1,MAP3K1 transcripts (RNASeq),[4],significantly increased
same,MEK1/2 transcript levels (RNASeq),[5],no effect
